Results as given in US9695118B2, “Benzamide derivative” (Chugai Seiyaku Kabushiki Kaisha, priority 2012, dated 2017).

Columns and labels:
DDR1 = DDR1 (Homo sapiens (Human), UniProt Q08345); test: biochemical
Description: Measurement of DDR1 Binding Activity
DDR1 binding activity was measured by the LanthaScreen (Registered trademark) Eu Kinase Binding Assay (manufactured by Life Technologies Corporation). […] After reacting at room temperature for one hour, the fluorescence resonance energy transfer was measured.

[1] = test system: human endometrial cancer cell line MFE-280; test: Antitumor effect in cancer-bearing mice with subcutaneously transplanted MFE-280; assay type: in vivo; settings: Dose 200 mg/kg, orally once daily; MFE-280 in BALB/c nude mice; 11th day after start of administration
Description: 3. Measurement of Antitumor Effect
The antitumor effect was measured for representative examples of the compounds of the present invention.
The antitumor effect was measured using cancer-bearing mice in which the human endometrial cancer cell line MFE-280 (manufactured by DSMZ) was subcutaneously transplanted to the flank of BALB/c nude mice (manufactured by Charles River Laboratories Japan, Inc.).
About 1×10^7 MFE-280 cells were subcutaneously transplanted to the flank of the purchased nude mice after a one-week quarantine period. The tumor size was measured with calipers, and the tumor volume was calculated (tumor volume=length×breadth^2/2 (mm^3)). The mice were subjected to the experiment when the tumor volume was about 200 mm^3.
The test compound was suspended in the administration solution, and 0.4 mL of the suspension was orally administered once daily. The antitumor effect was calculated as inhibition of tumor growth by comparing the tumor growth between the drug-treated group and the administration solution-administered control group on the 11th day after the start of administration.
Tumor volume growth inhibition (TGI)=(1−tumor volume growth in drug-treated group/tumor volume growth in control group)×100(%)

Chain of DDR1 (Q08345 19-913): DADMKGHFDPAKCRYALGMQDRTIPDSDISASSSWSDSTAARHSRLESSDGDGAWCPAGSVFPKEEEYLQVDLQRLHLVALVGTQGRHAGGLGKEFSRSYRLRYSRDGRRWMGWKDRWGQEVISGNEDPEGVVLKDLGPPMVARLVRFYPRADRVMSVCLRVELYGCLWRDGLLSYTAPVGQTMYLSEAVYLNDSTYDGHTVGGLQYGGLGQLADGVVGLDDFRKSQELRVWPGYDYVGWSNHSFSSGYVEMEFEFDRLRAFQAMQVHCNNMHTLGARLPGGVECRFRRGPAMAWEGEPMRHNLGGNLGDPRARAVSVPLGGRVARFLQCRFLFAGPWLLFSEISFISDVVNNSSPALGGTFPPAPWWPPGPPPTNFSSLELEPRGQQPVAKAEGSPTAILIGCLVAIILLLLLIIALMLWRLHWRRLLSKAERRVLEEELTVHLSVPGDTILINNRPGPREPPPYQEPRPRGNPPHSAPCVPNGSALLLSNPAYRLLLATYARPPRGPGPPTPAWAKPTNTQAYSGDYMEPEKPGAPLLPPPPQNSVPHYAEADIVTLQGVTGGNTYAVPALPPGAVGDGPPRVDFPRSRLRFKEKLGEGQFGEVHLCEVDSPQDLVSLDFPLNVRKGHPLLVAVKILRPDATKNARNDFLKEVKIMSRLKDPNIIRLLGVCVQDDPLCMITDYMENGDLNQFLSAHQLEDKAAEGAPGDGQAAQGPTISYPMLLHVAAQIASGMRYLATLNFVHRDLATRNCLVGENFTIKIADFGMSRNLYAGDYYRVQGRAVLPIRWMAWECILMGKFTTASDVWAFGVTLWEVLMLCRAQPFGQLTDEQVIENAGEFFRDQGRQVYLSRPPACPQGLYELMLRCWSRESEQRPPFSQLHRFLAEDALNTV

Row | SMILES | IC50 (DDR1) [nM] | Antitumor effect TGI after 11 days passed (%) [1] [%]
1 | CCS(=O)(=O)c1ccc(Cl)cc1CNC(=O)c1cc(Br)cc(OC(F)(F)F)c1 [Compound A-10, 3-bromo-N-(5-chloro-2-ethanesulfonyl-benzyl)-5-trifluoromethoxy-benzamide] | 50 | –
2 | CCS(=O)(=O)c1ccc(Cl)cc1CNC(=O)c1ccc(CN2CCN(C)CC2)c(C(F)(F)F)c1 [Compound B-2, N-(5-Chloro-2-ethanesulfonyl-benzyl)-4-(4-methyl-piperazin-1-ylmethyl)-3-trifluoromethyl-benzamide] | – | 61
3 | CCS(=O)(=O)c1ccc(Cl)cc1CNC(=O)c1cc(Cl)c(CN2CCC([N+](C)(C)[O-])CC2)c(C(F)(F)F)c1 [Compound N-24] | 76 | –
4 | C#CCN(CC#C)[C@H]1CCCN(Cc2c(Cl)cc(C(=O)NCc3cc(Cl)ccc3S(=O)(=O)CC)cc2C(F)(F)F)C1 [DD-23, 4-[[(3S)-3-[Bis(prop-2-ynyl)amino]piperidin-1-yl]methyl]-3-chloro-N-[(5-chloro-2-ethylsulfonylphenyl)methyl]-5-(trifluoromethyl)benzamide] | 800 | –
